# Laboratory results reported in ChEMBL document CHEMBL1201862, “PubChem BioAssay data set” (2004).
# The source made the active and inactive calls.
# Key:
# [1] = biological target: Eukaryotic translation initiation factor 4E (Mus musculus, UniProt P63073); test: eIF4E–eIF4G protein interaction inhibitors, dose response, biochemical, TR-FRET (AID 855); type: functional;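 also: potency for disrupting eIF4E binding to eIF4GI seen as loss of FRET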
# [2] = biological target: Acyl-homoserine lactone acylase PvdQ (Pseudomonas aeruginosa (strain LESB58), UniProt Q9I194); test: P. aeruginosa PvdQ acylase inhibitors, dose response, biochemical, fluorescence, plate reader and imaging, cherry-picks (AID 493231)
# [3] = system: Streptococcus sp. 'group A'; test: growth inhibition of control SK(-) GAS strain, dose response, counter-screen for streptokinase expression inhibitor project, luminescence, kanamycin, BacTiterGlo, confirmation (AID 1900); type: functional, organism-based
# [4] = biological target: 5-hydroxytryptamine receptor 2A (Mus musculus, UniProt P35363); type: functional, cell-based;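 also: CHO-K1 cells with tagged receptor and beta-arrestin; agonist potency measured as compound-induced activation of the receptor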
# Streptococcus = test: Group A Streptococcus viability loss, dose response, counter-screen for streptokinase expression inhibitor project, luminescence, BacTiterGlo (AID 1915); type: functional, organism-based;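 also: potency for reduction of bacterial viability or growth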
# X-box-binding protein 1 = X-box-binding protein 1 (Homo sapiens, UniProt P17861); type: functional, Cricetulus griseus;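 also: confirmatory dose-response counter-screen serving a CHOP assay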
# Streptokinase A = biological target: T1, Streptokinase A (Streptococcus pyogenes serotype M1, UniProt P10520); test: S. pyogenes streptokinase expression inhibitors, potency, dose response, plasminogen activation absorbance, OD405 (AID 1914); type: functional, Streptococcus pyogenes M1 GAS;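 also: secreted streptokinase activity via plasminogen activation per viability signal from cell pellet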
# T1 sequence (P10520 whole entry): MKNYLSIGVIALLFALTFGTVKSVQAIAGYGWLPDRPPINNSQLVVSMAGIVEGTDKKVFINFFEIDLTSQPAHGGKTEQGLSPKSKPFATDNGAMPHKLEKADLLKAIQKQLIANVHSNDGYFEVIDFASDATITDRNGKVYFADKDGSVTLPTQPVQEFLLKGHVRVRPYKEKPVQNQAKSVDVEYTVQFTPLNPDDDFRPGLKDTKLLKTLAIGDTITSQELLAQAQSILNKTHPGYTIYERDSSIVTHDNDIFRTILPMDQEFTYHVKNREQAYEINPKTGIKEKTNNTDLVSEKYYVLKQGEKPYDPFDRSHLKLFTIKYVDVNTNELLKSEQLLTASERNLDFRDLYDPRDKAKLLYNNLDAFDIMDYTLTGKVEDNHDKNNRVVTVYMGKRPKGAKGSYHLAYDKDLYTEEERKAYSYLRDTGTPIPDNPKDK
# Mu-type opioid receptor = Mu-type opioid receptor (Homo sapiens, UniProt P35372); type: functional, cell-based;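 also: U2OS cells with beta-arrestin recruitment to OPRM1 by beta-gal complementation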
# Cytochrome P450 1A2 = biological target: T2, Cytochrome P450 1A2 (Homo sapiens, UniProt P05177);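 also: PubChem cytochrome P450 panel assay, CYP1A2 panel member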
# T2 sequence (P05177 whole entry): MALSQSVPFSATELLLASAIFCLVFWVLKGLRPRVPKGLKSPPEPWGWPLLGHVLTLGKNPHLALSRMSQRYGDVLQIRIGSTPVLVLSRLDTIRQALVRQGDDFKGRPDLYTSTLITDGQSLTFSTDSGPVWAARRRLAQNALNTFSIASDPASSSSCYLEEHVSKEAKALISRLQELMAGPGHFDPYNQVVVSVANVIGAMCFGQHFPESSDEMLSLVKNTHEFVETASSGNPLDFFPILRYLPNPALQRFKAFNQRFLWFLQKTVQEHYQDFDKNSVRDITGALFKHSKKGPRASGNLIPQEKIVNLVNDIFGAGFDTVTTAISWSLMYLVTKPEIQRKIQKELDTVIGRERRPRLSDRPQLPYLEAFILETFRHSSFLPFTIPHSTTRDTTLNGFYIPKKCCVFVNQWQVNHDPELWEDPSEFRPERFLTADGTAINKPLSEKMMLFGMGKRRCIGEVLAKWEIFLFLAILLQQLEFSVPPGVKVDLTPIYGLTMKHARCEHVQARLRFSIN
# [5] = Luminescence Cell-Based Dose Response HTS to Identify Activators of Luciferase Translation or Activity in H4 […] Cells. [Related pubchem assays: 1829 (Project Summary), 1814 (Primary HTS)]; type: functional
# H4 = test: Luminescence Cell-Based Dose Response HTS to Identify Activators of 5'UTR Stem-Loop Driven Prion Protein mRNA Translation in H4 Neuroglioblastoma Cells. [Related pubchem assays: 1829 (Project Summary), 1814 (Primary HTS)]; type: functional; settings: Homo sapiens
# [6] = A Cell Based Secondary Assay To Explore Cytotoxicity of Compounds that Sensitize Mycobacterium Tuberculosis to Beta-Lactam Antibiotics.; type: functional
# [7] = Luminescence Cell-Based Dose Confirmation HTS to Identify Activators of 5'UTR Stem-Loop Driven Alpha-Synuclein mRNA Translation in H4 Neuroglioblastoma Cells. [Related pubchem assays: 1829 (Project Summary), 1814 (Primary HTS)]; type: functional
# Cytochrome P450 2C19 = Cytochrome P450 2C19 (Homo sapiens, UniProt P33261); test: Cytochrome panel assay with activity outcomes. Panel member name: p450-cyp2c19 Compounds with AC50 equal or less than 10 uM are considered active; type: functional; settings: read-out: AC50
# [8] = biological target: G-protein coupled receptor 55 (Homo sapiens, UniProt Q9Y2T6); test: GPR55 antagonists blocking LPI-driven arrestin recruitment, primary screen, imaging, U2OS, beta-arrestin-GFP, LPI agonist (AID 2013); type: functional;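 also: antagonist potency measured as reduced agonist-driven arrestin aggregation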
# [9] = biological target: T3, Tyrosine-protein phosphatase non-receptor type 7 (Homo sapiens, UniProt P35236); type: functional
# T3 sequence (P35236 whole entry): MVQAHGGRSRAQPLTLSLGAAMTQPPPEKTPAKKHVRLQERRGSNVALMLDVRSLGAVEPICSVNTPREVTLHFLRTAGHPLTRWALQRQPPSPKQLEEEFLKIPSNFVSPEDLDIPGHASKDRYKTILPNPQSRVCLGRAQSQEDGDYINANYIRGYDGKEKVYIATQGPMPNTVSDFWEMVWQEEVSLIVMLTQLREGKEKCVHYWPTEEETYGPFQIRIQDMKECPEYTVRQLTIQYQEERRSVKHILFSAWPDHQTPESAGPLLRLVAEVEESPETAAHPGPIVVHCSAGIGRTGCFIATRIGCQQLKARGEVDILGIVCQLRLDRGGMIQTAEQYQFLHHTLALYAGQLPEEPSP
# [10] = biological target: T4, Dual specificity protein phosphatase 6 (Rattus norvegicus, UniProt Q64346)
# T4 sequence (Q64346 whole entry): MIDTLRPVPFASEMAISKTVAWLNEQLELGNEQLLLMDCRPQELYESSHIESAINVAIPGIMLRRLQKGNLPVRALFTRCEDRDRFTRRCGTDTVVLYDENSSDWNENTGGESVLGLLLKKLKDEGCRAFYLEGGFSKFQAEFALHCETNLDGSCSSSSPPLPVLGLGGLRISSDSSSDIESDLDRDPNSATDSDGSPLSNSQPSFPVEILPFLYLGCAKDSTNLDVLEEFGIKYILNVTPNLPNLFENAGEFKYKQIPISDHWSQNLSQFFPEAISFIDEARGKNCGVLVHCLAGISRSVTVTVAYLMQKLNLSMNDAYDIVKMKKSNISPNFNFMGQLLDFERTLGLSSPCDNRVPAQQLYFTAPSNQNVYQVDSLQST
# [11] = biological target: Glyceraldehyde-3-phosphate dehydrogenase (Homo sapiens, UniProt P04406)
# [12] = biological target: T4, Dual specificity protein phosphatase 6; type: functional
# ORF 73 = ORF 73 (Human herpesvirus 8, UniProt O40947); test: inhibitors of C-LANA binding to LBS DNA, dose response, biochemical, fluorescence polarization, cherry-picked samples (AID 504725); set-up: species or system Human gammaherpesvirus 8;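 also: fluorescence polarization of a labeled DNA duplex reporting LANA DNA binding; potency is for inhibitors that block LANA binding to the DNA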
# [13] = biological target: Induced myeloid leukemia cell differentiation protein Mcl-1 (Homo sapiens, UniProt Q07820); type: functional
# Estrogen receptor beta = Estrogen receptor beta (Homo sapiens, UniProt Q92731); test: ERβ–SRC-3 coactivator interaction inhibitors, confirmation, orthogonal assay, biochemical, ELISA, streptavidin-HRP readout (AID 1060)
# Leucine aminopeptidase = biological target: T5, Leucine aminopeptidase (Plasmodium falciparum 3D7, UniProt Q8IL11); test: P. falciparum M17LAP inhibitors, primary screen, biochemical, fluorogenic H-Leu-NHMec substrate, 1536-well (AID 1619); type: functional
# T5 sequence (Q8IL11 whole entry): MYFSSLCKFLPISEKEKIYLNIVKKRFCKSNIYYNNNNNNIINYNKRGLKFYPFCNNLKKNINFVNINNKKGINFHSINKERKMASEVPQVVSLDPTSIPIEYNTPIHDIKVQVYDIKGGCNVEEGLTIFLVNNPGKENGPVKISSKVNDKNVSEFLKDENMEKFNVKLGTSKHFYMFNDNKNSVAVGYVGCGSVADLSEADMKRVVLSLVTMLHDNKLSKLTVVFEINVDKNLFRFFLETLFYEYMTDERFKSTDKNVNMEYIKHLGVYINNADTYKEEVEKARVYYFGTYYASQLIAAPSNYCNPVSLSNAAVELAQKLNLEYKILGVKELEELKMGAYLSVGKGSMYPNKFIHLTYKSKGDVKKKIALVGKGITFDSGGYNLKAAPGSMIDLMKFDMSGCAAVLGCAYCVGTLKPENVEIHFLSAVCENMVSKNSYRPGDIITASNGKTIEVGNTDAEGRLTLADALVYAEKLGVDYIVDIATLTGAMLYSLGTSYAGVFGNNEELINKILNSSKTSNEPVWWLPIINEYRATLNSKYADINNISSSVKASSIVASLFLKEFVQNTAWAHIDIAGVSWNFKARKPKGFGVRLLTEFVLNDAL
# Aspartyl aminopeptidase = Aspartyl aminopeptidase (Plasmodium falciparum 3D7, UniProt Q8I2J3)
# Procathepsin L = Procathepsin L (Homo sapiens, UniProt P07711)
# [14] = biological target: T6, Heat shock factor protein 1 (Mus musculus, UniProt P38532); test: inhibition of MG132-induced HSE-luciferase signal, confirmation, cell-based, NIH3T3, luminescence, dose retest (AID 2382); type: functional;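 also: NIH3T3 fibroblasts with HSF1-driven luciferase reporter stressed by proteasome inhibitor MG132; luminescence from HSF1-driven luciferase expression after 8 hours of MG132 stress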
# T6 sequence (P38532 whole entry): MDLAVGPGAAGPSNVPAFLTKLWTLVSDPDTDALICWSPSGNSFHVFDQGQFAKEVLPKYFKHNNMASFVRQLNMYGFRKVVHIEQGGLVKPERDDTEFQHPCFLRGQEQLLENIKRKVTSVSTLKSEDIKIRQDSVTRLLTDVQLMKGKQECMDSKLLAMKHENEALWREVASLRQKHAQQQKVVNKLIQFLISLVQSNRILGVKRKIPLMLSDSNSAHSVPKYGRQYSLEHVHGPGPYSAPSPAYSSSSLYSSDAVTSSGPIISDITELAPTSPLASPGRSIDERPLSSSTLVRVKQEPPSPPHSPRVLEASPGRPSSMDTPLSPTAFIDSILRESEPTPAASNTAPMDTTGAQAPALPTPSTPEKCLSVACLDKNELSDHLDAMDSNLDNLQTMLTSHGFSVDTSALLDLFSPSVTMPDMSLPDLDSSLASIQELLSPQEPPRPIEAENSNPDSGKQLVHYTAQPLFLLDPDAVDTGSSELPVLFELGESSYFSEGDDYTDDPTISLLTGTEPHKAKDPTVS
# SUMO-activating enzyme [15] = biological target: T7, SUMO-activating enzyme (Homo sapiens, UniProt Q9UBT2); test: SUMOylation inhibitor hit validation, confirmation, SUMOylation inhibitor project, biochemical, AlphaScreen (AID 2018); type: functional
# Large T antigen = Large T antigen (Simian virus 40, UniProt P03070); type: functional, Betapolyomavirus macacae;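 also: Confirmatory-stage PubChem screen for compounds that inhibit SV40 T antigen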
# [16] = THP-1 cell cytotoxicity, dose response, cytotoxicity control for Vif-APOBEC3G degradation inhibitor project, THP-1 cells (AID 1117359); type: functional; settings: Human immunodeficiency virus 1, THP-1
# SUMO-activating enzyme [17] = biological target: T7, SUMO-activating enzyme; test: inhibitors of in vitro SUMOylation cascade, primary screen, biochemical, HTRF, uHTS (AID 2006); type: protein-complex assay
# [18] = biological target: DNA dC->dU-editing enzyme APOBEC-3A (Homo sapiens, UniProt P31941); test: Dose Response confirmation of small molecule APOBEC3A DNA Deaminase Inhibitors via a fluorescence-based single-stranded DNA deaminase assay. [Related pubchem assays (depositor defined):AID493011, AID493024]; type: functional
# [19] = biological target: DNA dC->dU-editing enzyme APOBEC-3G (Homo sapiens, UniProt Q9HC16); type: functional;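 also: Dose-response counterscreen measuring inhibition of APOBEC3G DNA deaminase activity, run while confirming APOBEC3A inhibitors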
# Sequence of DNA dC->dU-editing enzyme APOBEC-3G (Q9HC16 whole entry): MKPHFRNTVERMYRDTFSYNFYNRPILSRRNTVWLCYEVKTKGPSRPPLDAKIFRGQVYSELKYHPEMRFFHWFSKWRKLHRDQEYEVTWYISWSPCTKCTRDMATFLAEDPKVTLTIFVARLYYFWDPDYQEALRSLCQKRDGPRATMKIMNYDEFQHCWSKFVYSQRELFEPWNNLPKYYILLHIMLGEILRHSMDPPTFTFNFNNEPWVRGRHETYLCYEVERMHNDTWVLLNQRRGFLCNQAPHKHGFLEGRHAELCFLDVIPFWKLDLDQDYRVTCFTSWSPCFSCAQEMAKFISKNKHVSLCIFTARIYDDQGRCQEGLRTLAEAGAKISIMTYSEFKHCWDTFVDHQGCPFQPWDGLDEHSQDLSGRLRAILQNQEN
# Sequence of Acyl-homoserine lactone acylase PvdQ (Q9I194 24-193 limits assumed): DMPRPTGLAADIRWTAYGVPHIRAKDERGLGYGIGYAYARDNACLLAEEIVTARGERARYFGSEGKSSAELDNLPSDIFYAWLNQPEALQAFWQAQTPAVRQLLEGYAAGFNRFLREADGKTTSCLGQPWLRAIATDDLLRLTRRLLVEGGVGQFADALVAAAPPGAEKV
# Sequence of Acyl-homoserine lactone acylase PvdQ (Q9I194 217-762 limits assumed): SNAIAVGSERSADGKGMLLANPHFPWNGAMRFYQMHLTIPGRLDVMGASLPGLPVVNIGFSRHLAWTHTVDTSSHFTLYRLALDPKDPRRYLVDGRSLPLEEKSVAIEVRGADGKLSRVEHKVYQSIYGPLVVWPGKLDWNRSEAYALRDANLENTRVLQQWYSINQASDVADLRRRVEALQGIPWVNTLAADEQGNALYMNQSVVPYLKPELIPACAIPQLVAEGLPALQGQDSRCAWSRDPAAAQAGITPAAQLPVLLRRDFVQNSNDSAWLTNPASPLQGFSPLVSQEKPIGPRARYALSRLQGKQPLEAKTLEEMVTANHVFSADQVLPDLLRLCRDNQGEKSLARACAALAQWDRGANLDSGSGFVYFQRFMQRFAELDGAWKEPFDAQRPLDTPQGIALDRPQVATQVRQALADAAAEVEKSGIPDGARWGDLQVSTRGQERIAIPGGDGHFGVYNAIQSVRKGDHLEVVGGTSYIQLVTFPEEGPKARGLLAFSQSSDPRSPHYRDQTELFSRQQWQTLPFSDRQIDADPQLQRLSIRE
# Sequence of Procathepsin L (P07711 whole entry): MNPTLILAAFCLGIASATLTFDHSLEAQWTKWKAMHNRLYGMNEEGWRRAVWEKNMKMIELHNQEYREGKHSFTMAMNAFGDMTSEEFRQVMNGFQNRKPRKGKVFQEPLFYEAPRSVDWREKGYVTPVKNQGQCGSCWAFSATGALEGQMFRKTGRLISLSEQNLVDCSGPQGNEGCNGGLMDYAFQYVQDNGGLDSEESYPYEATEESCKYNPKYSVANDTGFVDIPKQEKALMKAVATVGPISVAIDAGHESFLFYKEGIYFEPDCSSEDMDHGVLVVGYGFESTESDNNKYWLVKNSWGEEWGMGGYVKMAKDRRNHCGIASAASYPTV
# Sequence of X-box-binding protein 1 (P17861 whole entry): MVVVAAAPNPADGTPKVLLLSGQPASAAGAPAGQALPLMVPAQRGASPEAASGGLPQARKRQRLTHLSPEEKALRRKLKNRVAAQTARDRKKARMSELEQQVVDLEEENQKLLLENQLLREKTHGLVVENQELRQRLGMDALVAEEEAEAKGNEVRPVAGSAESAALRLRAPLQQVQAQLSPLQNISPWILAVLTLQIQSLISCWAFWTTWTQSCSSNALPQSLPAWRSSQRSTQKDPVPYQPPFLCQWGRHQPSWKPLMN
# Sequence of Aspartyl aminopeptidase (Q8I2J3 whole entry): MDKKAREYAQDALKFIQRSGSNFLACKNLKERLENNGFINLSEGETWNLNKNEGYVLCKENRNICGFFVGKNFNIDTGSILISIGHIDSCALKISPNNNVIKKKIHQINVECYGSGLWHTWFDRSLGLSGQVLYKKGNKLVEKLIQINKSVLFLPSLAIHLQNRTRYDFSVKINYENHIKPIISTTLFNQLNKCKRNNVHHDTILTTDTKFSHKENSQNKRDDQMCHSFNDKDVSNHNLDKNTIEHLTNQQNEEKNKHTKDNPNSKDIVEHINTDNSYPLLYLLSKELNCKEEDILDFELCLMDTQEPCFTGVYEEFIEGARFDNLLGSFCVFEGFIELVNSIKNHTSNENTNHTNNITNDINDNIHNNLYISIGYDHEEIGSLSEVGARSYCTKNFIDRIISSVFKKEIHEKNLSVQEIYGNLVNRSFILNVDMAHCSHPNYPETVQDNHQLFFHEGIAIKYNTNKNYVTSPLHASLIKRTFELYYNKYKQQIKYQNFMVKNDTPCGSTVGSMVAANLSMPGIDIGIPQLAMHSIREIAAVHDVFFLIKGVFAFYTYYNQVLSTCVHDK
# Sequence of G-protein coupled receptor 55 (Q9Y2T6 whole entry): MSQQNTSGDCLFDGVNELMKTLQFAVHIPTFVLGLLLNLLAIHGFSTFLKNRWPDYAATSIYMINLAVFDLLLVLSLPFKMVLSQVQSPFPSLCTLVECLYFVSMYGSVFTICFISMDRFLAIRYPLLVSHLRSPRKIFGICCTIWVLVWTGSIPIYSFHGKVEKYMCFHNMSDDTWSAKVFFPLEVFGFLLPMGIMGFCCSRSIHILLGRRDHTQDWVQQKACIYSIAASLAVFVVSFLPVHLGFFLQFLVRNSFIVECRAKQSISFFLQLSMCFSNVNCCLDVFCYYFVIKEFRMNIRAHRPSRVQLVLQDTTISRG
# T7 sequence (Q9UBE0 whole entry): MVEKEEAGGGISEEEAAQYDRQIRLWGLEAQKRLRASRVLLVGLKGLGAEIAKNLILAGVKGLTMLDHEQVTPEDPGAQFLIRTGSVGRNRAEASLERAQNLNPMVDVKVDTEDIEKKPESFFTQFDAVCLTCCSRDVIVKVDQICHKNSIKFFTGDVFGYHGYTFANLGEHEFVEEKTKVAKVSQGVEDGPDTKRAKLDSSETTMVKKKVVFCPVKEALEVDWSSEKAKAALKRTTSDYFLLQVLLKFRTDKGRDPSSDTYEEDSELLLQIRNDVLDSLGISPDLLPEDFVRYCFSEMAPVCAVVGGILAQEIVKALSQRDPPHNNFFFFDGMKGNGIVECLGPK
# T7 sequence (Q9UBT2 whole entry): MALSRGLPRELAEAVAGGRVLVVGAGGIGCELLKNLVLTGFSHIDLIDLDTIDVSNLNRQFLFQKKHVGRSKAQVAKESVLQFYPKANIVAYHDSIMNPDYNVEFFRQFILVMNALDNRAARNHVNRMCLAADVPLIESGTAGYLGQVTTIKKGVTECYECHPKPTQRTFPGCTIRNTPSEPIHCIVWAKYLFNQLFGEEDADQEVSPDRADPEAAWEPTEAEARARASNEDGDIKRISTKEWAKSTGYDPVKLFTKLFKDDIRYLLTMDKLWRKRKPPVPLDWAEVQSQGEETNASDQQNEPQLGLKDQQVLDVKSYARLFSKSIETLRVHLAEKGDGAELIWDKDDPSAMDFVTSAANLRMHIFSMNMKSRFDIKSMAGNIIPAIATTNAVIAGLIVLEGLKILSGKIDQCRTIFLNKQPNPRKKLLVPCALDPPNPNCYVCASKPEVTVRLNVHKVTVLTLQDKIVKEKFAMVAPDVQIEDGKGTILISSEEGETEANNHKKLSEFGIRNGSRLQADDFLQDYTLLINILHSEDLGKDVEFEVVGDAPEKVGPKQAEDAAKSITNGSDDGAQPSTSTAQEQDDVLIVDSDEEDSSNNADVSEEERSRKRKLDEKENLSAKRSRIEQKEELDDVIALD
# Sequence of 5-hydroxytryptamine receptor 2A (P35363 whole entry): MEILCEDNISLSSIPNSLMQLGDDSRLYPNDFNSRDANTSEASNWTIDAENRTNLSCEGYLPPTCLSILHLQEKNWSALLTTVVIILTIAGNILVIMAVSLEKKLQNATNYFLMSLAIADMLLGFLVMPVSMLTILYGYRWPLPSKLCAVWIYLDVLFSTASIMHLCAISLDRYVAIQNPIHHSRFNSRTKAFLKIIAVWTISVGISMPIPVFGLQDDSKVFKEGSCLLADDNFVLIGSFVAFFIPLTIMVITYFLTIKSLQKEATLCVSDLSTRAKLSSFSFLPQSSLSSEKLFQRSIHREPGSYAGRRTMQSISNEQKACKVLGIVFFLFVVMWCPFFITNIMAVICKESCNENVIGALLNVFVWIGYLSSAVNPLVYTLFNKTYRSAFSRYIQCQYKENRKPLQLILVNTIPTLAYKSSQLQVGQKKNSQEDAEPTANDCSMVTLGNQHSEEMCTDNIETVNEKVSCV
# Sequence of Eukaryotic translation initiation factor 4E (P63073 whole entry): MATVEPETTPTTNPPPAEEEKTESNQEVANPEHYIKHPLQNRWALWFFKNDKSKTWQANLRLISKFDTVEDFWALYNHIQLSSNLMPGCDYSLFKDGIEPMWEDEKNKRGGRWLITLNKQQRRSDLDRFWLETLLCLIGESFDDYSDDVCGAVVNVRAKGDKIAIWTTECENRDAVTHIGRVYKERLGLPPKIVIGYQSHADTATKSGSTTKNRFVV
# Sequence of Glyceraldehyde-3-phosphate dehydrogenase (P04406 whole entry): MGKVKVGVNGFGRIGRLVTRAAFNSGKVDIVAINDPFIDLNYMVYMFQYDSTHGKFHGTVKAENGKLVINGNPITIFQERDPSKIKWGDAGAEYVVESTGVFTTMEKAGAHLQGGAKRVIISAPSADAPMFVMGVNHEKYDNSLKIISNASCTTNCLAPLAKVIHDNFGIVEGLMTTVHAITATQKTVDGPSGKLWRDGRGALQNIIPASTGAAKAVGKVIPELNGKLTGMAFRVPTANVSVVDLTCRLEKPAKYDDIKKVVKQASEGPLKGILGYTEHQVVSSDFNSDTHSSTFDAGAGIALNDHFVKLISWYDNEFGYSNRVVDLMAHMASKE
# Sequence of DNA dC->dU-editing enzyme APOBEC-3A (P31941 whole entry): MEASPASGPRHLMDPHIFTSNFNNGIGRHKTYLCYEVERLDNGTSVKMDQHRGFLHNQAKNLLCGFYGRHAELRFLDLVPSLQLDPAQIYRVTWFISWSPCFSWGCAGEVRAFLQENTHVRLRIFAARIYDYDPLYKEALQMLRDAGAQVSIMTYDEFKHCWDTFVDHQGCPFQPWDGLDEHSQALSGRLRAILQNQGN
compound,measurement,setting,value
C=CCn1c(N)cc(=O)nc1SCC(=O)Nc1cccc2ccccc12,IC50,[1],> 64 µM (inactive)
CCCOc1ccc(C(=O)CCC(=O)OCC(=O)Nc2cccc(S(N)(=O)=O)c2)cc1,AC50,[2],> 100 µM (inactive)
Cc1ccc(Nc2nc(N)nc(CN3CCN(c4ccccc4)CC3)n2)cc1Cl,EC50,[3],8.53 µM (active)
same,EC50,[4],76.1 µM (inactive)
same,EC50,Streptococcus,111 µM (active)
same,Absolute IC50 (XBP1),X-box-binding protein 1,10 µM
same,EC50,Streptokinase A,> 150 µM (not active)
same,EC50,Mu-type opioid receptor,92.5 µM (inactive)
O=C(Oc1oc(-c2ccco2)nc1/C=N/c1ccc(Cl)cc1)c1ccco1,AC50,Cytochrome P450 1A2,15.8 µM (inconclusive)
same,EC50,[5],21.7 µM (active)
same,EC50,H4,31.7 µM (active)
same,CC50,[6],> 40 µM (active)
same,EC50,[7],14.3 µM (active)
same,AC50,Cytochrome P450 2C19,14.1 µM (inconclusive)
CCOC(=O)c1c(-c2ccccc2)oc2ccc(O)c(CN3CCN(C)CC3)c12,IC50,[8],6.85 µM (active)
Cc1ccc2c(c1)NC(C(=O)O)NS2(=O)=O (configuration not stated),IC50,[9],3.35 µM (active)
same,IC50,[10],52.5 µM (active)
same,IC50,[11],> 100 µM (not active)
same,IC50,[12],56.9 µM (active)
Cc1cccc(C)c1NC(=O)CSc1nnc(-c2ccco2)c(-c2ccco2)n1,AC50,ORF 73,160 µM (active)
same,IC50,[13],4.92 µM (active)
same,IC50,Estrogen receptor beta,2 µM (not active)
same,IC50,Leucine aminopeptidase,18.9 µM (active)
O=C(Nc1ccc(Br)cc1Cl)Nn1cnnc1,IC50,Aspartyl aminopeptidase,0.711 µM (active)
same,IC50,Procathepsin L,> 59.6 µM (not active)
COc1cc(C2c3sc(=O)[nH]c3SC3C4CCC(C4)C23)ccc1O (configuration not stated),IC50,[8],0.672 µM (active)
N#Cc1cccnc1Nc1ccc(Cl)cc1,AC50,[2],14.2 µM (active)
O=C(O)CSc1nnc[nH]1,IC50,Aspartyl aminopeptidase,0.202 µM (active)
same,IC50,Procathepsin L,> 59.6 µM (not active)
Cc1cc(C)c2c(c1)/C(=N/NS(=O)(=O)c1ccc(Br)cc1)CCC2,EC50,[14],> 195 µM (not active)
same,Absolute IC50 (XBP1),X-box-binding protein 1,10 µM
O=C1N=C(Nc2ccc(O)cc2)S/C1=C\C=C\c1ccco1,IC50,SUMO-activating enzyme [15],2.59 µM (active)
same,IC50,Large T antigen,31.5 µM (active)
same,CC50,[16],2.84 µM (active)
same,IC50,SUMO-activating enzyme [17],30.8 µM (active)
CSCC[C@H](NC(=O)c1ccc(Cl)c(S(=O)(=O)N2CCCC2)c1)c1nc2ccccc2[nH]1,IC50,[18],5.06 µM (active)
same,IC50,[19],4.93 µM (active)
